Source: patent publication US20130315834A1, “NANOPROBE COMPRISING GOLD COLLOID NANOPARTICLES FOR MULTIMODALITY OPTICAL IMAGING OF CANCER AND TARGETED DRUG DELIVERY FOR CANCER” (priority 2010, published 2013)

Legend:
[1] = tested on: A-431 cell lines; experiment: PDT in cellular model, white light, apoptosis/necrosis staining (Example 7); assay type: cell-based, human; conditions: about 12 hours incubation, broadband white light; hypericin 2-10 μM
Experimental: After establishing the internalization and delivery capabilities of Hypericin-Au-EGFR probe, the therapeutic potential of the probe by conducting a PDT experiment in a cellular model is examined. Hypericin-Au-EGFR probe and various amounts of hypericin are incubated with A-431 cell lines for about 12 hours and PDT is conducted using a broadband excitation using white light. Post PDT images are recorded using a confocal fluorescence microscopy with differential staining for apoptosis in green (as indicated by the white encircled area) and necrosis in red (as shown by the lighter shade indicated by the white arrow) to assess the PDT effect.

[2] = tested on: A-431 cells; experiment: In-vitro uptake of hypericin, confocal fluorescence microscopy; assay type: cell-based, human; conditions: about 3 hours incubation, FIG. 9b
Experimental: Targeting and localization of the nanoprobes to cellular receptors is assessed using dark field contrast imaging and confocal fluorescence microscopy. Briefly, A-431 cells are incubated with the nanoprobes for about 3 hours at about 37° C. The cells are then washed in PBS, fixed in 2% paraformaldehyde for about 10 mins and mounted in Vectashield fluorescent mounting medium (Vector Laboratories, Burlingame, Calif.). The cells are visualized via dark field illumination system (CytoViva, Auburn, Ala.) attached to a Nikon Eclipse 80i microscope. The in-vitro localization of the nanoprobes is also assessed by exciting the cells using a 488 nm argon laser. Fluorescence emission in the wavelength range of 590-630 nm is split by a dichroic filter and detected through a band pass filter (BP-610 nm; Omega Optical, Brattleboro, Vt.). […]
Confocal fluorescence microscopy is used to study CNE2 cells treated with 2 hypericin and A-431 cells treated with Hypericin-Au-EGFR theragnostic probe for about 6 hours under physiological conditions. […]
Using confocal laser scanning microscope, the in-vitro uptake of hypericin-GNP labeled with anti-EGFR after about 3 hours incubation is also assessed. […] The intensity of hypericin fluorescence following incubation of hypericin alone is greater compared to incubating the cells with bioconjugated hypericin GNP conjugate (FIG. 9b). […]

[3] = tested on: CNE2 cells; experiment: as above; assay type: cell-based; conditions: 2 hypericin, about 6 hours, physiological conditions
Experimental: Confocal fluorescence microscopy is used to study CNE2 cells treated with 2 hypericin and A-431 cells treated with Hypericin-Au-EGFR theragnostic probe for about 6 hours under physiological conditions. […] This will be ideal for a probe for diagnosis and therapy.

Cc1cc(O)c2c(=O)c3c(O)cc(O)c4c5c(O)cc(O)c6c(=O)c7c(O)cc(C)c8c1c2c(c34)c(c78)c65 [hypericin]
mode of cell death after PDT [1]: cell death via necrosis
intensity of hypericin fluorescence, hypericin alone compared to bioconjugated hypericin GNP [2]: greater
hypericin fluorescence in cells [3]: hypericin fluorescence from within the cell
